In US20240174659A1, “COMPOUNDS AND METHODS FOR YAP/TEAD MODULATION AND INDICATIONS THEREFOR” (Opna Bio SA, priority 2021, published 2024):

Tested on: TEAD-dependent transcription
Assay: Inhibitor activity against TEAD-dependent transcription in a cell-based reporter assay (MSTO-211H+12XGTIIC luciferase)
Details: Homo sapiens; MSTO-211H+12XGTIIC cells, 24 hours incubation, luciferase luminescence normalized to cell viability fluorescence, geometric mean; read-out: MSTO-211H GMean IC50 (uM) Cell Assay Reporter Cell Variant: TEAD
Summary of the method: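 MSTO-211H mesothelioma cells stably carrying a 12xGTIIC TEAD-response-element luciferase reporter, treated with serial compound dilutions for 24 h at 37 °C. Luminescence normalized to CellTiter-Fluor viability signal; % inhibition versus DMSO and 20 μM K-975 controls, IC50 by nonlinear regression.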

| Compound | IC50 [µM] |
| --- | --- |
| O=C(/C=C/CN1CCC1)N1CCc2ccc(Oc3ccc(C(F)(F)F)cc3)cc2C1 [P-0117, (E)-4-(azetidin-1-yl)-1-(7-(4-(trifluoromethyl)phenoxy)-3,4-dihydroisoquinolin-2(1H)-yl)but-2-en-1-one] | 0.5 to 20 |
| O=C(/C=C/CN1CCCC1)N1CCc2ccc(Oc3ccc(C(F)(F)F)cc3)cc2C1 [P-0118, (E)-4-(pyrrolidin-1-yl)-1-(7-(4-(trifluoromethyl)phenoxy)-3,4-dihydroisoquinolin-2(1H)-yl)but-2-en-1-one] | 0.5 to 20 |
| O=C(/C=C/Cn1ccnc1)N1CCc2ccc(Oc3ccc(C(F)(F)F)cc3)cc2C1 [P-0119, (E)-4-(1H-imidazol-1-yl)-1-(7-(4-(trifluoromethyl)phenoxy)-3,4-dihydroisoquinolin-2(1H)-yl)but-2-en-1-one] | 0.001 to 0.5 |
| O=C(/C=C/CN1CCOCC1)N1CCc2ccc(Oc3ccc(C(F)(F)F)cc3)cc2C1 [P-0120, (E)-4-morpholino-1-(7-(4-(trifluoromethyl)phenoxy)-3,4-dihydroisoquinolin-2(1H)-yl)but-2-en-1-one] | 0.5 to 20 |
| CN1CCN(C/C=C/C(=O)N2CCc3ccc(Oc4ccc(C(F)(F)F)cc4)cc3C2)CC1 [P-0121, (E)-4-(4-methylpiperazin-1-yl)-1-(7-(4-(trifluoromethyl)phenoxy)-3,4-dihydroisoquinolin-2(1H)-yl)but-2-en-1-one] | 0.5 to 20 |
| C=C(C)C(=O)N1CCc2ccc(Oc3ccc(C(F)(F)F)cc3)cc2C1 [P-0122, 2-methyl-1-(7-(4-(trifluoromethyl)phenoxy)-3,4-dihydroisoquinolin-2(1H)-yl)prop-2-en-1-one] | 0.5 to 20 |
| C/C=C/C(=O)N1CCc2ccc(Oc3ccc(C(F)(F)F)cc3)cc2C1 [P-0123, (E)-1-(7-(4-(trifluoromethyl)phenoxy)-3,4-dihydroisoquinolin-2(1H)-yl)but-2-en-1-one] | 0.001 to 0.5 |
| C=C(Cl)C(=O)N1CCc2ccc(Oc3ccc(C(F)(F)F)cc3)cc2C1 [P-0124, 2-chloro-1-(7-(4-(trifluoromethyl)phenoxy)-3,4-dihydroisoquinolin-2(1H)-yl)prop-2-en-1-one] | 0.001 to 0.5 |
| O=C(/C=C/Cl)N1CCc2ccc(Oc3ccc(C(F)(F)F)cc3)cc2C1 [P-0125, (E)-3-chloro-1-(7-(4-(trifluoromethyl)phenoxy)-3,4-dihydroisoquinolin-2(1H)-yl)prop-2-en-1-one] | 0.001 to 0.5 |
| C=C(CO)C(=O)N1CCc2ccc(Oc3ccc(C(F)(F)F)cc3)cc2C1 [P-0126, 2-(hydroxymethyl)-1-(7-(4-(trifluoromethyl)phenoxy)-3,4-dihydroisoquinolin-2(1H)-yl)prop-2-en-1-one] | 0.001 to 0.5 |
| C=C(C)S(=O)(=O)N1CCc2ccc(Oc3ccc(C(F)(F)F)cc3)cc2C1 [P-0127, 2-(prop-1-en-2-ylsulfonyl)-7-(4-(trifluoromethyl)phenoxy)-1,2,3,4-tetrahydroisoquinoline] | 0.001 to 0.5 |
| C=CC(=O)N1CCc2ccc(Oc3ccc(C(F)(F)F)cc3)cc2C1=O [P-0128, 2-acryloyl-7-(4-(trifluoromethyl)phenoxy)-3,4-dihydroisoquinolin-1(2H)-one] | 0.001 to 0.5 |
| C=CC(=O)N1CCc2ccc(OCc3ccc(F)c(F)c3)cc2C1 [P-0129, 1-(7-((3,4-difluorobenzyl)oxy)-3,4-dihydroisoquinolin-2(1H)-yl)prop-2-en-1-one] | > 20 |
| C=CC(=O)N1CCc2ccc(OCC3CCC(F)(F)C3)cc2C1 (centres unmarked) [P-0130, 1-(7-((3,3-difluorocyclopentyl)methoxy)-3,4-dihydroisoquinolin-2(1H)-yl)prop-2-en-1-one] | 0.001 to 0.5 |
